Data reported in BindingDB's records for doi:10.1016/s0960-894x(02)00051-3 (Eli Lilly, 2002).

These compounds were tested against Multidrug resistance-associated protein 1 (ABCC1) (Homo sapiens) (UniProt P33527) (assay: In vitro for its inhibitory activity against MRP1-transfected HeLa-T5 cell line in the presence of doxorubicin).
Chain of Multidrug resistance-associated protein 1 (ABCC1) (Homo sapiens) (P33527 whole entry, looked up): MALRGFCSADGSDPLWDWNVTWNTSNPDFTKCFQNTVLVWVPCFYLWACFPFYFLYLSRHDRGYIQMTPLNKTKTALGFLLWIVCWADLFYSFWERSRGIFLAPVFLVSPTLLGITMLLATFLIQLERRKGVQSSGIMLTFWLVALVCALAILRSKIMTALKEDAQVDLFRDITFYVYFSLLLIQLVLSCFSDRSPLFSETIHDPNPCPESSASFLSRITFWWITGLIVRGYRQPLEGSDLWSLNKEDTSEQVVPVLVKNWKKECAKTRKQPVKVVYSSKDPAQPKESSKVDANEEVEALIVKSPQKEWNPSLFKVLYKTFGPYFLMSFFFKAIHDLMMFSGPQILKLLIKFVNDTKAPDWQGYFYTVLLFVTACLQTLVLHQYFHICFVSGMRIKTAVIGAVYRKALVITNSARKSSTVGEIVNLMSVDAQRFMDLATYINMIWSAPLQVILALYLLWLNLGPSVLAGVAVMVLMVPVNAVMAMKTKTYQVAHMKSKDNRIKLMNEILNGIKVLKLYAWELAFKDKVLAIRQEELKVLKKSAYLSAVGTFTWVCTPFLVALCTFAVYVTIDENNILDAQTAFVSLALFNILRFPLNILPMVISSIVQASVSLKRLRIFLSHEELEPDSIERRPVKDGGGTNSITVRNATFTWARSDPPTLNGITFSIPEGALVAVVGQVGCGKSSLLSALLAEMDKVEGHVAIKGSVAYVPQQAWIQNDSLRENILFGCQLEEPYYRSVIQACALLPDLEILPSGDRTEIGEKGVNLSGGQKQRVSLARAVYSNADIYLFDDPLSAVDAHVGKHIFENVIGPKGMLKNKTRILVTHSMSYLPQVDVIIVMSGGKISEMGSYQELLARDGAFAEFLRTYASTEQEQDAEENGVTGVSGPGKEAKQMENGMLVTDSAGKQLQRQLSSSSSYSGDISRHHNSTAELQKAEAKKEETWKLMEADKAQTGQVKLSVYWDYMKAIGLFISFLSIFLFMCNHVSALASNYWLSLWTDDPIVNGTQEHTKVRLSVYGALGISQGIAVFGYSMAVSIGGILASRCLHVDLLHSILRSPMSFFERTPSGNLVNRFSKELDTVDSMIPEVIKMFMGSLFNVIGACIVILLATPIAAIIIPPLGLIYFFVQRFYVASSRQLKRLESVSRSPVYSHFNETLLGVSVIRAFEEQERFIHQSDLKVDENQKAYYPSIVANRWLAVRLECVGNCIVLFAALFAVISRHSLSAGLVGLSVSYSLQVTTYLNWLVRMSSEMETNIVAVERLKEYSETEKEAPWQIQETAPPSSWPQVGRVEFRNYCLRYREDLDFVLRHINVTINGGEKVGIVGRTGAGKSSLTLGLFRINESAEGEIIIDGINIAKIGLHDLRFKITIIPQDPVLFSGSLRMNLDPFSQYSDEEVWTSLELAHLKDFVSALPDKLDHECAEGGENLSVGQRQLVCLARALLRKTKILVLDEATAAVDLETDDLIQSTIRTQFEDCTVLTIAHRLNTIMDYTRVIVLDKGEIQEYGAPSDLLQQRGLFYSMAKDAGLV

Q: With `COc1ccc(NC(=O)Cc2cccc(-n3c(=O)c4c(C)onc4c4c(Cl)cccc43)c2)cc1OC` [2-[3-(9-Chloro-3-methyl-4-oxo-4H-isoxazolo[4,3-c]quinolin-5-yl)-phenyl]-N-(3,4-dimethoxy-phenyl)-acetamide] as the compound, how does the EC50 read?
A: 4.1 µM

Q: For `COc1cc(NC(=O)Cc2cccc(-n3c(=O)c4c(C)onc4c4c(Cl)cccc43)c2)cc(OC)c1` [2-[3-(9-Chloro-3-methyl-4-oxo-4H-isoxazolo[4,3-c]quinolin-5-yl)-phenyl]-N-(3,5-dimethoxy-phenyl)-acetamide], which EC50 is on record?
A: 2.1 µM

Q: How did the EC50 turn out when `COc1cccc(NC(=O)Cc2cccc(-n3c(=O)c4c(C)onc4c4c(Cl)cccc43)c2)c1` [2-[3-(9-Chloro-3-methyl-4-oxo-4H-isoxazolo[4,3-c]quinolin-5-yl)-phenyl]-N-(3-methoxy-phenyl)-acetamide] was run?
A: 1.8 µM

Q: With `Cc1onc2c1c(=O)n(-c1cccc(CC(=O)Nc3ccc(F)cc3)c1)c1cccc(Cl)c21` [2-[3-(9-Chloro-3-methyl-4-oxo-4H-isoxazolo[4,3-c]quinolin-5-yl)-phenyl]-N-(4-fluoro-phenyl)-acetamide] as the compound, how does the EC50 read?
A: 3.2 µM

Q: Which EC50 does the source give for `COc1ccc(NC(=O)Cc2cccc(-n3c(=O)c4c(C)onc4c4c(Cl)cccc43)c2)cc1` [2-[3-(9-Chloro-3-methyl-4-oxo-4H-isoxazolo[4,3-c]quinolin-5-yl)-phenyl]-N-(4-methoxy-phenyl)-acetamide] here?
A: > 10 µM

Q: Which EC50 does the source give for `Cc1onc2c1c(=O)n(-c1cccc(CC(=O)Nc3ccc(S(N)(=O)=O)cc3)c1)c1cccc(Cl)c21` [2-[3-(9-Chloro-3-methyl-4-oxo-4H-isoxazolo[4,3-c]quinolin-5-yl)-phenyl]-N-(4-sulfamoyl-phenyl)-acetamide] here?
A: > 10 µM

Q: For `COc1cc(N(C)C(=O)Cc2cccc(-n3c(=O)c4c(C)onc4c4c(Cl)cccc43)c2)cc(OC)c1OC` [2-[3-(9-Chloro-3-methyl-4-oxo-4H-isoxazolo[4,3-c]quinolin-5-yl)-phenyl]-N-methyl-N-(3,4,5-trimethoxy-phenyl)-acetamide], which EC50 is on record?
A: 0.64 µM

Q: `COC(=O)c1ccc(NC(=O)Cc2cccc(-n3c(=O)c4c(C)onc4c4c(Cl)cccc43)c2)cc1` [4-{2-[3-(9-Chloro-3-methyl-4-oxo-4H-isoxazolo[4,3-c]quinolin-5-yl)-phenyl]-acetylamino}-benzoic acid methyl ester] was tested. Which EC50 did it give?
A: > 10 µM

Q: How did the EC50 turn out when `Cc1cc(C(=O)NCc2cccc(-n3c(=O)c4c(C)onc4c4c(Cl)cccc43)c2)no1` [5-Methyl-isoxazole-3-carboxylic acid 3-(9-chloro-3-methyl-4-oxo-4H-isoxazolo[4,3-c]quinolin-5-yl)-benzylamide] was run?
A: 7.9 µM

Q: With `Cc1cc(C(=O)N[C@@H]2c3cc(-n4c(=O)c5c(C)onc5c5c(Cl)cccc54)ccc3C[C@H]2O)no1` [5-Methyl-isoxazole-3-carboxylic acid [(1R,2R)-6-(9-chloro-3-methyl-4-oxo-4H-isoxazolo[4,3-c]quinolin-5-yl)-2-hydroxy-indan-1-yl]-amide] as the compound, how does the EC50 read?
A: 10 µM

Q: How did the EC50 turn out when `COc1cc(OCCc2cccc(-n3c(=O)c4c(C)onc4c4c(Cl)cccc43)c2)cc(OC)c1OC` [9-Chloro-3-methyl-5-{3-[2-(3,4,5-trimethoxy-phenoxy)-ethyl]-phenyl}-5H-isoxazolo[4,3-c]quinolin-4-one] was run?
A: 1.47 µM

Q: How did the EC50 turn out when `COc1cc(CNCc2cccc(-n3c(=O)c4c(C)onc4c4c(Cl)cccc43)c2)cc(OC)c1OC` [9-Chloro-3-methyl-5-{3-[(3,4,5-trimethoxy-benzylamino)-methyl]-phenyl}-5H-isoxazolo[4,3-c]quinolin-4-one] was run?
A: 1.77 µM

Q: Which EC50 does the source give for `Cc1onc2c1c(=O)n(-c1cccc(CC(=O)Nc3ccc(C(C)(C)C)cc3)c1)c1cccc(Cl)c21` [N-(4-tert-Butyl-phenyl)-2-[3-(9-chloro-3-methyl-4-oxo-4H-isoxazolo[4,3-c]quinolin-5-yl)-phenyl]-acetamide] here?
A: > 10 µM

Q: For `Cc1onc2c1c(=O)n(-c1cccc(CC(=O)Nc3ccc4c(c3)OCO4)c1)c1cccc(Cl)c21` [N-Benzo[1,3]dioxol-5-yl-2-[3-(9-chloro-3-methyl-4-oxo-4H-isoxazolo[4,3-c]quinolin-5-yl)-phenyl]-acetamide], which EC50 is on record?
A: 4 µM
